Source: publication PMC7832085 (Journal of medicinal chemistry, 2016)

Key:
hTDP2 DT40 cells = assay type: cell-based; details: different concentrations of EPT
recombinant human TDP2 = molecular target: T1, recombinant human TDP2 (Homo sapiens, UniProt O95551); assay: Recombinant TDP2 assay; assay type: biochemical; details: for Inhibition of recombinant TDP2 (in words): recombinant human TDP2, concentrations up to 111 μM
T1 sequence (O95551 1-362): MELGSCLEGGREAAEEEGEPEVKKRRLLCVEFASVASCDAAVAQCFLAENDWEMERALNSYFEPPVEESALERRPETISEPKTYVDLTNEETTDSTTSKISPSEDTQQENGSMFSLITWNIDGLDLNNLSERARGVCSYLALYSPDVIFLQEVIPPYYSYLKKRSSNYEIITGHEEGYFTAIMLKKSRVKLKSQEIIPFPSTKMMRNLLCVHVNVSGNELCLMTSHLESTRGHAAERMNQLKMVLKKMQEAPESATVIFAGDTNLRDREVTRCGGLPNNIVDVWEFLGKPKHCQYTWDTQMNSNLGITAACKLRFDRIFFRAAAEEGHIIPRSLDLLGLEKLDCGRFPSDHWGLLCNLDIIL

TDP1 = TDP1 (Homo sapiens, UniProt Q9NUW8); assay: TDP1 counter assay; assay type: biochemical; details: highest testing concentration 111 μM
[1] = molecular target: T2, human TDP2 (hTDP2) whole cell extracts (Homo sapiens, UniProt O95551); assay: Whole cell extract; assay type: biochemical
T2 sequence (O95551 1-362): T1 sequence (O95551 1-362)

Chain of TDP1 (Q9NUW8 whole entry): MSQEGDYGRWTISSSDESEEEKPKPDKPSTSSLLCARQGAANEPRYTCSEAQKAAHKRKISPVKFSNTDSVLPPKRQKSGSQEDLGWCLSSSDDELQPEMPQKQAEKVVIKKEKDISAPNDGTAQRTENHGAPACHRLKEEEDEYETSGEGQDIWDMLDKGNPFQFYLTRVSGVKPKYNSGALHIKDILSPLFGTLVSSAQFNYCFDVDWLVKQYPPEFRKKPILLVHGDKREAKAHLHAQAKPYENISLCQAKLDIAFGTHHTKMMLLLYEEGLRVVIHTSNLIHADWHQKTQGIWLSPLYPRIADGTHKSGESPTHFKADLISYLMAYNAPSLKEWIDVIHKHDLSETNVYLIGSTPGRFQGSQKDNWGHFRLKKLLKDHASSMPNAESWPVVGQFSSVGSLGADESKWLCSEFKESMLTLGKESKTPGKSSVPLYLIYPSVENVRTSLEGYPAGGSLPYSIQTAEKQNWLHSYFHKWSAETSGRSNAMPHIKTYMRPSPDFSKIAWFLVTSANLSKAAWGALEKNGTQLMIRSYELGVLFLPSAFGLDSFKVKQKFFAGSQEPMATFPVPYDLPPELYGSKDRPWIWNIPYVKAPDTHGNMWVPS

Row | Compound | Inhibition of recombinant TDP2 (in words) (recombinant human TDP2) | Synergy in combination with ETP (hTDP2 DT40 cells) | also measured
1 | O=C1Cc2ccc(C(=O)O)cc2C(=O)N1 [Compound 40, 1,3-Dioxo-1,2,3,4-tetrahydroisoquinoline-7-carboxylic Acid] |  | not observed | 
2 | O=C1Cc2cccc(-c3cccc([N+](=O)[O-])c3)c2C(=O)N1 [Compound 57, 8-(3-Nitrophenyl)isoquinoline-1,3(2H,4H)-dione] | substantially reduced inhibitory activity |  | 
3 | O=C1Cc2cc(-c3ccco3)ccc2C(=O)N1 [Compound 43, 6-(Furan-2-yl)isoquinoline-1,3 (2H,4H)-dione] |  | not observed | IC50 (recombinant human TDP2): 8.5 µM; Inhibition of TDP1 (counter assay) (TDP1): no inhibition
4 | O=C1Cc2cc(I)ccc2C(=O)N1 [Compound 36, 6-Iodoisoquinoline-1,3(2H,4H)-dione] |  | not observed | 
5 | O=C1Cc2cccc(-c3cccc(O)c3)c2C(=O)N1 [Compound 53, 8-(3-Hydroxyphenyl)isoquinoline-1,3(2H,4H)-dione] | substantially reduced inhibitory activity |  | 
6 | O=C1Cc2cc(-c3nc4ccccc4s3)ccc2C(=O)N1 [Compound 84] |  | not observed | 

Second part, led by results:

Row | Inhibition of recombinant TDP2 (in words) (recombinant human TDP2) | Compound | Synergy in combination with ETP (hTDP2 DT40 cells) | also measured
7 | inactive | O=C1Cc2c(cccc2-c2cccc([N+](=O)[O-])c2)C(=O)N1 [Compound 58, 5-(3-Nitrophenyl)isoquinoline-1,3(2H,4H)-dione] |  | 
8 | inactive | O=C1Cc2cc(-c3ccco3)ccc2C(=O)N1O [Compound 46, 6-(Furan-2-yl)-2-hydroxyisoquinoline-1,3(2H,4H)-dione] |  | Inhibition of endogenous TDP2 in WCE (in words) [1]: inactive
9 | inactive | O=C1Cc2c(cccc2-c2ccco2)C(=O)N1 [Compound 45, 5-(Furan-2-yl)isoquinoline-1,3(2H,4H)-dione] |  | 
10 | inactive | O=C1Cc2c(Br)cccc2C(=O)N1 [Compound 34, 5-Bromoisoquinoline-1,3(2H,4H)-dione] |  | 
